Results reported in patent US20250034171A1, “IMIDAZOPYRIDINE AMIDES AND RELATED COMPOUNDS FOR USE IN THE TREATMENT OF BACTERIAL INFECTIONS” (priority 2021, published 2025).
Values after ≈ are worked out from the molar mass of the structure shown. Read-outs that look alike come from different tables or passages of the source.

Tests used:
[1] = system: Mycobacterium tuberculosis strain H37Rv; experiment: Test 2: MIC determination against M. tuberculosis, resazurin fluorescence; assay type: cell-based; details: Test 2, M. tuberculosis H37Rv; for MIC90: read-out: Bacterial activity MIC90; for IC50: read-out: Bacterial activity pMIC50 (converted)
[2] = Metabolic stability in liver microsomes (intrinsic clearance); assay type: in vitro ADME; details: microsomes
Experimental: The test compound was incubated under the generic condition (0.5 mg/ml microsomal protein, 1 mM NADPH, 1 mM MgCl2, and 0.1 M phosphate buffer, pH 7.4, 37° C.) at a defined substrate concentration (typically 1 μM) in liver microsomes of selected species across a time course (typically 0, 5, 10, 20, 40 and 60 minutes) at Cyprotex (Cheshire, UK). The liver microsomes, buffer and test compound will be pre-incubated for 5 minutes. The addition of the co-factor NADPH will initiate the reaction and the reaction was terminated by addition of acetonitrile. The samples were centrifuged prior to analysis by LC-MS/MS analysis. The relative amount of parent compound remaining in the active incubations vs. the control incubations (t=0 mins) for each compound was measured by peak area comparison. The in vitro metabolic half-life (t1/2) was calculated using the slope of the log-linear regression from the percentage parent compound remaining versus time relationship (κ), The in vitro intrinsic clearance (Cl^int) (μl/min/mg microsomal protein) was calculated using the in vitro metabolic half-life, incubation volume and the weight of microsomal protein in the incubation.

[3] = HTChem stab assay (chemical stability in buffer pH2, pH4 and pH7 vs DMSO reference); assay type: physicochemical; details: 72 h, 50 µM
Experimental: HTChem stab assay was used to assess the chemical stability of the compounds. 72 h stirring at rt in a buffer pH2, pH4 and pH7 vs a reference DMSO solution. HTChem stab assay is based on the handbook of Pharmaceutical Stress Testing, Predicting Drug Degradation, second edition, authors Baertschi, Alsante, Reed ISBN 978-143980179-6.
Compounds were plated (1 μl 10 mM DMSO stock in 96 well plate (DMSO control+3 pH conditions), one plate per condition).
200 μL of respectively DMSO, Buffer/DMSO mix pH2, Buffer/DMSO mix pH4 and Buffer/DMSO mix pH7 was added.
After 72 h shaking (300 rpm) at room temperature the samples were analysed by LC/UV/MS. Chromatograms of samples (stability conditions) were compared with the chromatograms of control sample (DMSO). Extra peaks were flagged and identified by mass spectrometry. Sample purity (reference included) were reported.
• pH3 buffer: For 11; weigh 4.14 g NaH2PO4·H2O, add 600 ml H2O, add H3PO4 to pH3, add H2O to 1000 ml. Filter over 0.2 μm and store at 4° C. Expires after 30 days. • pH6 buffer: For 1 l; weigh 4.14 g NaH2PO4·H2O, add 600 ml H2O, add 1N NaOH to pH6, add H2O to 1000 ml. Filter over […] and store at 4° C. Expires after 30 days.
• pH2 Buffer/DMSO (StabSolvent): mix 2 parts of HCl 0.1N with 1 part of DMSO • pH4 Buffer/DMSO (StabSolvent): mix 2 parts of buffer pH3 with 1 part of DMSO • pH7 Buffer/DMSO (StabSolvent): mix 2 parts of buffer pH6 with 1 part of DMSO measure pH prior to use.
Instrument: Acquity UPLC; Column: Acquity HSS T3, 50 mm length×2.1 mm i.d., 1.8 μm particle size. Detectors: PDA (250-350 nm) and SQD2 (90-1500m/z). Mobile phase A: 0.1% Formic acid in water; Mobile phase B: 0.1% Formic acid in Acetonitrile.
Injection volume: 5 μL, flow rate 0.6 mL/min.
Data processing including peak integration and identification was done with Waters OpenLynx software.

[4] = Mycobacterium tuberculosis, H37RV
[5] = mouse, pH 7.4, Metabolic Stability Half life (mouse, min.)
[6] = mouse, pH 7.4, mouse liver microsomes, read-out: Metabolic Stability (liver microsome intrinsic clearance) Clearance (mouse, μl/min./mg protein)

Structure (SMILES)	MIC90 [1, 4] [µM]	IC50 [1, 4] [pM]	further results
CCc1nc2ncc(C)cn2c1C(=O)NCc1ccc(-c2nc3n(n2)CCC(C(F)(F)F)C3)cc1 (single isomer, unassigned) [Compound 1b]	–	–	Bacterial activity pMIC50 [1]: 8.576; MIC90 [1]: 0.007 µM (≈ 0.00338 µg/mL); Metabolic Stability (liver microsome intrinsic clearance) Clearance (human, μl/min./mg protein) ([2]; human): 7.81 μl/min./mg protein; Metabolic Stability Half life (human, min.) ([2]; human): 2.97 h; Metabolic Stability (liver microsome intrinsic clearance) Clearance (mouse, μl/min./mg protein) ([2]; mouse): 7.8 μl/min./mg protein; Metabolic Stability Half life (mouse, min.) ([2]; mouse): 2.97 h
CCc1nc2ncccn2c1C(=O)NCc1ccc(-c2nc3n(n2)CC[C@@H](C(F)(F)F)C3)c(F)c1 (single isomer, unassigned) [Compound 73]	–	–	Bacterial activity pMIC50 [1]: 7.18; MIC90 [1]: 0.35 µM (≈ 0.171 µg/mL); Metabolic Stability (liver microsome intrinsic clearance) Clearance (mouse, μl/min./mg protein) ([2]; mouse): <7.7 μl/min./mg protein; Metabolic Stability Half life (mouse, min.) ([2]; mouse): >3 h
CCc1nc2ncccn2c1C(=O)NCc1ccc(-c2nc3n(n2)CC[C@H](C(F)(F)F)C3)c(F)c1 (single isomer, unassigned) [Compound 74]	–	–	Bacterial activity pMIC50 [1]: 6.94; MIC90 [1]: >0.5 µM; Metabolic Stability (liver microsome intrinsic clearance) Clearance (mouse, μl/min./mg protein) ([2]; mouse): <7.7 μl/min./mg protein; Metabolic Stability Half life (mouse, min.) ([2]; mouse): >3 h
CCc1nc2n(c1C(=O)NCc1ccc(-c3nc4n(n3)CC[C@H](C(F)(F)F)C4)c(F)c1)CCCC2 (single isomer, unassigned) [Compound 77]	–	–	Bacterial activity pMIC50 [1]: 7.6; MIC90 [1]: 0.098 µM (≈ 0.0481 µg/mL); Metabolic Stability (liver microsome intrinsic clearance) Clearance (mouse, μl/min./mg protein) ([2]; mouse): 26.1 μl/min./mg protein; Metabolic Stability Half life (mouse, min.) ([2]; mouse): 0.885 h
CCc1nc2ncc(C)cn2c1C(=O)NCc1ccc(-c2cn3c(n2)CC(C(F)(F)F)CC3)cc1 (centres unmarked) [Compound 3ab]	0.009 (≈ 0.00434 µg/mL)	3550	half-life at 1 µM ([2]; human, pH 7.4, Metabolic Stability Half life (human, min.)): 1.54 h; microsomal CLint at 1 µM ([2]; human, pH 7.4, human liver microsomes, read-out: Metabolic Stability (liver microsome intrinsic clearance) Clearance (human, μl/min./mg protein)): 15 µL/min/mg; half-life at 1 µM [2, 5]: 1.7 h; microsomal CLint at 1 µM [2, 6]: 13.6 µL/min/mg
CCc1nc2ncc(CN)cn2c1C(=O)NCc1ccc(-c2nc3n(n2)CCC(C(F)(F)F)C3)cc1 (centres unmarked) [Compound 16ab]	–	> 500000	Chemical stability data, Vehicle DMSO [3]: 77%; Chemical stability data, Buffer pH2 ([3]; pH 2): 74%; Chemical stability data, Buffer pH4 ([3]; pH 4): 74%; Chemical stability data, Buffer pH7 ([3]; pH 7): 80%
CCc1nc2ncc(OC)cn2c1C(=O)NCc1ccc(-c2nc3n(n2)CC[C@H](C(F)(F)F)C3)cc1 [Compound 49]	0.023 (≈ 0.0115 µg/mL)	7760	half-life at 1 µM [2, 5]: 1.8 h; microsomal CLint at 1 µM [2, 6]: 12.9 µL/min/mg
O=C(NCc1ccc(-c2nc3n(n2)CC[C@@H](C(F)(F)F)C3)cc1)c1c(C(F)F)nc2n1CCCC2 [Compound 80]	0.2 (≈ 0.0989 µg/mL)	56200	half-life at 1 µM [2, 5]: 1.42 h; microsomal CLint at 1 µM [2, 6]: 16.3 µL/min/mg
CCc1nc2ncc(C(F)(F)F)cn2c1C(=O)NCc1ccc(-c2nc3n(n2)CC[C@@H](C(F)(F)F)C3)cc1 [Compound 172]	> 0.46	> 295000	–
CCc1nc2ncc(C(F)(F)F)cn2c1C(=O)NCc1ccc(-c2nc3n(n2)CC[C@H](C(F)(F)F)C3)cc1 [Compound 173]	–	–	Bacterial activity pMIC50 [1]: <6.49; MIC90 [1]: >0.47 µM
O=C(NCc1ccc(-c2nc3n(n2)CC[C@H](C(F)(F)F)C3)cc1)c1c(C(F)F)nc2n1CCCC2 [Compound 174]	0.25 (≈ 0.124 µg/mL)	67600	half-life at 1 µM [2, 5]: 1.34 h; microsomal CLint at 1 µM [2, 6]: 17.3 µL/min/mg
CCc1nc2ncc(Cl)cn2c1C(=O)NCc1ccc(-c2cn3c(n2)C[C@H](C(F)(F)F)CC3)cc1 [Compound 175]	0.059 (≈ 0.0297 µg/mL)	21900	–
CCc1nc2ncc(Cl)cn2c1C(=O)NCc1ccc(-c2cn3c(n2)C[C@@H](C(F)(F)F)CC3)cc1 [Compound 176]	0.039 (≈ 0.0196 µg/mL)	12600	–
CCc1nc2ncccn2c1C(=O)NCc1ccc(-c2cc3n(n2)CCC(C(F)(F)F)C3)cc1 (centres unmarked) [Compound 180]	0.12 (≈ 0.0562 µg/mL)	20000	half-life at 1 µM [2, 5]: 2.35 h; microsomal CLint at 1 µM [2, 6]: 9.9 µL/min/mg
CCc1nc2ncccn2c1C(=O)NCc1ccc(-c2nc3n(n2)C[C@@H](C(F)(F)F)CC3)cc1 [Compound 181]	0.22 (≈ 0.103 µg/mL)	57500	–
CCc1nc2ncccn2c1C(=O)NCc1ccc(-c2nc3n(n2)C[C@H](C(F)(F)F)CC3)cc1 [Compound 182]	0.2 (≈ 0.0939 µg/mL)	52500	–
CCc1nc2n(c1C(=O)NCc1ccc(-c3cn4c(n3)CC(C(F)(F)F)CC4)c(F)c1)CCCC2 (centres unmarked) [Compound 185]	0.034 (≈ 0.0166 µg/mL)	9770	–
CCc1nc2ncccn2c1C(=O)NCc1ccc(-c2cn3c(n2)CC(C(F)(F)F)CC3)c(F)c1 (centres unmarked) [Compound 186]	0.19 (≈ 0.0924 µg/mL)	40700	half-life at 1 µM [2, 5]: > 3 h; microsomal CLint at 1 µM [2, 6]: < 7.7 µL/min/mg
CCc1nc2ncccn2c1C(=O)NCc1ccc(-c2cc3n(n2)CCCC3)cc1 [Compound 187]	> 0.5	151000	–
CCc1nc2n(c1C(=O)NCc1ccc(-c3nc4n(n3)CC(C(F)(F)F)CC4)cc1)CCCC2 (centres unmarked) [Compound 188]	0.23 (≈ 0.109 µg/mL)	22900	–
CCc1nc2ncccn2c1C(=O)NCc1ccc(-c2nc3n(n2)CCC(C(C)(F)F)C3)cc1 (centres unmarked) [Compound 189]	0.33 (≈ 0.154 µg/mL)	87100	–
CCc1nc2ncccn2c1C(=O)NCc1ccc(-c2nc3n(n2)CC[C@H](C(F)(F)F)C3)cc1 [Compound 190]	0.19 (≈ 0.0892 µg/mL)	47900	–
CCc1nc2ncc(C(F)(F)F)cn2c1C(=O)NCc1ccc(-c2cn3c(n2)C[C@H](C(F)(F)F)CC3)cc1 [Compound 192]	> 5	1.55e+06	–
CCc1nc2ncc(C(F)(F)F)cn2c1C(=O)NCc1ccc(-c2cn3c(n2)C[C@@H](C(F)(F)F)CC3)cc1 [Compound 193]	> 0.5	> 501000	–
CCc1nc2ncc(N)cn2c1C(=O)NCc1ccc(-c2nc3n(n2)CCC(C(F)(F)F)C3)c(F)c1 (centres unmarked) [Compound 197]	0.21 (≈ 0.106 µg/mL)	69200	–
CCc1nc2ncc(N)cn2c1C(=O)NCc1ccc(-c2nc3n(n2)CCC(C(F)(F)F)C3)c(C)c1 (centres unmarked) [Compound 198]	0.15 (≈ 0.0748 µg/mL)	45700	–
CCc1nc2ncc(N)cn2c1C(=O)NCc1ccc(-c2nc3n(n2)CCCC3)cc1 [Compound 199]	> 0.5	> 501000	–
CCc1nc2ncc(N)cn2c1C(=O)NCc1ccc(-c2nc3n(n2)CCC(C(C)(F)F)C3)cc1 (centres unmarked) [Compound 200]	0.22 (≈ 0.106 µg/mL)	61700	–
